Experimental data taken from ChEMBL document CHEMBL1201862, “PubChem BioAssay data set” (2004).
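Method: 48-hour compound exposure of cells in 96-well plates, five concentrations, linear interpolation of endpoints. Here, GI50 denotes the concentration required for 50% inhibition of growth.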 Calls of active or inactive are those of the source. No stated cut-off is given here; in the data, active = GI50 up to about 1.1 µM and inactive = higher.

Tests used:
Test in all cases: NCI anticancer screen, dose series, 48 h
RPMI-8226 = tested on: RPMI-8226
BT-549 = tested on: BT-549
HOP-92 = tested on: HOP-92
NCI-H522 = tested on: NCI-H522
SNB-75 = tested on: SNB-75
HCC 2998 = tested on: HCC 2998
Hs-578T = tested on: Hs-578T
SF-268 = tested on: SF-268
HCT-15 = tested on: HCT-15
Malme-3M = tested on: Malme-3M
OVCAR-5 = tested on: OVCAR-5
COLO 205 = tested on: COLO 205
PC-3 = tested on: PC-3
MDA-MB-231 = tested on: MDA-MB-231
K562 = tested on: K562
HCT-116 = tested on: HCT-116
OVCAR-3 = tested on: OVCAR-3
SK-MEL-2 = tested on: SK-MEL-2
NCI-H226 = tested on: NCI-H226
HL-60 = tested on: HL-60

SMILES | GI50 (RPMI-8226) | GI50 (BT-549) | GI50 (HOP-92) | GI50 (NCI-H522) | GI50 (SNB-75) | GI50 (HCC 2998) | GI50 (Hs-578T) | GI50 (SF-268) | GI50 (HCT-15) | GI50 (Malme-3M) | GI50 (OVCAR-5) | GI50 (COLO 205) | GI50 (PC-3) | GI50 (MDA-MB-231) | GI50 (K562) | GI50 (HCT-116) | GI50 (OVCAR-3) | GI50 (SK-MEL-2) | GI50 (NCI-H226) | GI50 (HL-60)
Cc1cc(N(CCOS(C)(=O)=O)CCOS(C)(=O)=O)ccc1/C=N/c1ccc(-c2csc(-c3ccc(Br)cc3)n2)cc1 | 16 µM (inactive) | 20.5 µM (inactive) | 14.4 µM (inactive) | 0.8 µM (active) | 3.99 µM (inactive) | 6.58 µM (inactive) | 35.6 µM (inactive) | 9.95 µM (inactive) | 15.2 µM | 21.9 µM (inactive) | 17.3 µM (inactive) | 1.22 µM (inactive) | 19.5 µM (inactive) | 15.5 µM (inactive) | 12.2 µM (inactive) | 27.5 µM (inactive) | 10.3 µM (inactive) | 24.7 µM (inactive) | 12.6 µM (inactive) | 2.58 µM (inactive)
CC1=C[C@@H](C)C[C@]2(C)CC[C@H](O2)[C@]23CC[C@](CO)(C[C@H](O2)[C@@H]2O[C@@](C)(CC2=O)[C@@H](O)[C@H]2CC[C@@]4(CCC[C@@H](O4)[C@H](C)C(=O)O[C@H]4C[C@H]([C@]5(O)OCC[C@H](C)[C@@H]5O)O[C@H]4C=C1)O2)O3 | > 10 µM (inactive) | 0.0127 µM (active) | 0.00163 µM (active) | 0.116 µM (active) | 0.001 µM (active) | 0.0906 µM (active) | 0.00163 µM (active) | 0.00279 µM (active) | 0.15 µM | 0.00873 µM (active) | 0.0316 µM (active) | 0.00192 µM (active) | 0.0137 µM (active) | 0.0225 µM (active) | 0.0183 µM (active) | 0.0222 µM (active) | 0.0171 µM (active) | 0.0513 µM (active) | 0.00386 µM (active) | 0.0809 µM (active)
